Data as given in ChEMBL document CHEMBL1201862, “PubChem BioAssay data set” (2004).
The source made the active and inactive calls.

Experiments:
[1] = Counterscreen for AddAB inhibitors: absorbance-based bacterial cell-based high throughput dose response assay for inhibitors of bacterial viability. [Related pubchem assays (depositor defined):AID435030, AID449728, AID449731, AID488942, AID488955, AID488956]; format: functional
[2] = THP-1 cell cytotoxicity, dose response, cytotoxicity control for non-replicating M. tuberculosis project (AID 489025); format: functional
[3] = cells; format: functional
[4] = target: T1, Exodeoxyribonuclease V (Escherichia coli (strain K12), UniProt P04993+P07648+P08394); assay: E. coli RecBCD inhibitors, dose response, counter-screen for AddAB inhibitor project, absorbance, V66 E. coli, mutant T4 phage (AID 492957); format: functional, cell-based, Escherichia coli str. K-12 substr. MG1655
T1 sequence (P04993 whole entry): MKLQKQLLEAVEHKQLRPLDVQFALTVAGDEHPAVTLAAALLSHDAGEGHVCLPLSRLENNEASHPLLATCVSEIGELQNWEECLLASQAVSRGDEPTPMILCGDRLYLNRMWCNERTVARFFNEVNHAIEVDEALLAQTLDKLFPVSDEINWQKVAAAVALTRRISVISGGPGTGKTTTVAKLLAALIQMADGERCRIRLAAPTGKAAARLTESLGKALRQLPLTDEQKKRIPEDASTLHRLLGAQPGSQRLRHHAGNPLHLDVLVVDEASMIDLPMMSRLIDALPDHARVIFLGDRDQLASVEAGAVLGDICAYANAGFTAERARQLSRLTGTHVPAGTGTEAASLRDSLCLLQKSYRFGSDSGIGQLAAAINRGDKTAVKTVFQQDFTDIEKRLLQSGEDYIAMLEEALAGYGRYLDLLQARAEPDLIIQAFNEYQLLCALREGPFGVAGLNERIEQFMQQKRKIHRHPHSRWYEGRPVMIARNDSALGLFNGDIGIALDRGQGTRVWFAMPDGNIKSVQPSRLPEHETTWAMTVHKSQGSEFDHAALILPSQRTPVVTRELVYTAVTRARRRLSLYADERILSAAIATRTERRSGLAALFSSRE
T1 sequence (P07648 whole entry): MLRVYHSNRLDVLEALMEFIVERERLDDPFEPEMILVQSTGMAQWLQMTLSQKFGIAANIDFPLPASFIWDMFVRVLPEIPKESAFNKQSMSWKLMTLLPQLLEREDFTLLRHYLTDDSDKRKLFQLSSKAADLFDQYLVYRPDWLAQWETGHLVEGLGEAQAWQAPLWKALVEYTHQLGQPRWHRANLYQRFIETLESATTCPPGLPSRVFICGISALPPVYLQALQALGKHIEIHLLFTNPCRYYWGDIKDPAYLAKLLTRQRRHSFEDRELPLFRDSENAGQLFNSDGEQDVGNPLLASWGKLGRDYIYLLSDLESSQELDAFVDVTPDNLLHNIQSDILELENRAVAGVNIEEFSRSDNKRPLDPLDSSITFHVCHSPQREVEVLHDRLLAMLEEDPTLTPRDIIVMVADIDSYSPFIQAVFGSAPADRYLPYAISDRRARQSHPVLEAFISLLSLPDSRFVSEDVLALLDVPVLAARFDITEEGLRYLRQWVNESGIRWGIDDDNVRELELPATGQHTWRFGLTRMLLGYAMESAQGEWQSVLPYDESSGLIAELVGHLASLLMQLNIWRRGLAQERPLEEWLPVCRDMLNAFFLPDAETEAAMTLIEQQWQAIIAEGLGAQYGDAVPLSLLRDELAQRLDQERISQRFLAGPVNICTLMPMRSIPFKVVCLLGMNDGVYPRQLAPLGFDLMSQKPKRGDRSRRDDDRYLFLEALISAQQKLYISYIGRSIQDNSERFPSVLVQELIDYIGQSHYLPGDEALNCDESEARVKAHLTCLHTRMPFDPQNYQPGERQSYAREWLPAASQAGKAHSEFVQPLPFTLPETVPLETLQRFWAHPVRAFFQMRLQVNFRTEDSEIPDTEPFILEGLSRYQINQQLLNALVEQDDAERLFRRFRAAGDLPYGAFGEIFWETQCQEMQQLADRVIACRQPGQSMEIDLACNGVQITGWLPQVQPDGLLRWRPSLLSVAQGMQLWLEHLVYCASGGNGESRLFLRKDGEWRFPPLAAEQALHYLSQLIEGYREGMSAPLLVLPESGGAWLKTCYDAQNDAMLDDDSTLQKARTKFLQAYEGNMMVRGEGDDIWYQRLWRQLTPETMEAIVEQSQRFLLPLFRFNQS
T1 sequence (P08394 whole entry): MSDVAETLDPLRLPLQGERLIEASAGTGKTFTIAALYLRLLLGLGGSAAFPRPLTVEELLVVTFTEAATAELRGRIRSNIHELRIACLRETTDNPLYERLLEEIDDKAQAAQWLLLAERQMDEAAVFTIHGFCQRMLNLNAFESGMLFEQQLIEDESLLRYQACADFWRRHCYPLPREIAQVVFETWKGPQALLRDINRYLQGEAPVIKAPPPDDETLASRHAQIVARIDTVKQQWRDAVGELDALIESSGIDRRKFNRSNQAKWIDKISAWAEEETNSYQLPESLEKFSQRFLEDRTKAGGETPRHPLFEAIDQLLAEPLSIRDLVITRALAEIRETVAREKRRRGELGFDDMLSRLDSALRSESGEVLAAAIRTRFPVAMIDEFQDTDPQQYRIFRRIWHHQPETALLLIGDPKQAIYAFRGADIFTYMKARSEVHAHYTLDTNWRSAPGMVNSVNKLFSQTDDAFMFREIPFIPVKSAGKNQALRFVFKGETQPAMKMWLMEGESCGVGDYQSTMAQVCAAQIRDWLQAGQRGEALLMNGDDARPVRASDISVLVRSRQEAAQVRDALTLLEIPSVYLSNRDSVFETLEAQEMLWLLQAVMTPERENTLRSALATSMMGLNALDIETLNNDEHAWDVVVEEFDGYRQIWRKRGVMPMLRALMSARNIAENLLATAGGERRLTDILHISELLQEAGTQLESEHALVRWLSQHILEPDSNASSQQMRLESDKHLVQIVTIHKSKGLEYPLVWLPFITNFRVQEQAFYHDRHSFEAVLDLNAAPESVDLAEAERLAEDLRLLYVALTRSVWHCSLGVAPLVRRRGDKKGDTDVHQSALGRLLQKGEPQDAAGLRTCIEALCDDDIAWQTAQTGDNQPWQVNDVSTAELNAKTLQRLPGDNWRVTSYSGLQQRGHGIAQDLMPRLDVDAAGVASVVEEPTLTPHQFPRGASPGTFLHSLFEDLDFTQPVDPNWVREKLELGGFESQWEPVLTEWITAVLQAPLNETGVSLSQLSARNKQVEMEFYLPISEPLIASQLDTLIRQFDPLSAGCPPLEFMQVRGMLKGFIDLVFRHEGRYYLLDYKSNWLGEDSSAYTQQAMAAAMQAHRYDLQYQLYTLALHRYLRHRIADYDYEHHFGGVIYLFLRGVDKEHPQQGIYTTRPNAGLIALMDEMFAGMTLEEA

[5] = ZM109 Env clade C HIV-1 fusion inhibitors, dose response, HeLa effector, CEM target cells, luciferase, cherry-pick (AID 652058); format: functional, cell-based
[6] = off-target signal loss in HeLa-CEM21 co-culture – HeLa F-luc CTL cells, cherry-picked, counter-screen for HIV-1 Env fusion inhibitor project, dose response (AID 652040); format: functional, cell-based;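 also: potency for signal decrease marking cytotoxic or nonspecific inhibition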
[7] = inhibitors of HIV Env-driven cell fusion, dose response, cherry-pick (AID 652057); format: functional, cell-based
[8] = target: Paired box protein Pax-8 (Homo sapiens, UniProt Q06710); assay: inhibitors of PAX8-driven TPO luciferase reporter, dose response, RMG-I cells, cherry-pick (AID 687027); format: functional, cell-based;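 also: luciferase reporter driven by Pax8 target thyroperoxidase promoter measured by SteadyGlo luminescence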
Chain of Paired box protein Pax-8 (Q06710 whole entry, the tested form may be a part): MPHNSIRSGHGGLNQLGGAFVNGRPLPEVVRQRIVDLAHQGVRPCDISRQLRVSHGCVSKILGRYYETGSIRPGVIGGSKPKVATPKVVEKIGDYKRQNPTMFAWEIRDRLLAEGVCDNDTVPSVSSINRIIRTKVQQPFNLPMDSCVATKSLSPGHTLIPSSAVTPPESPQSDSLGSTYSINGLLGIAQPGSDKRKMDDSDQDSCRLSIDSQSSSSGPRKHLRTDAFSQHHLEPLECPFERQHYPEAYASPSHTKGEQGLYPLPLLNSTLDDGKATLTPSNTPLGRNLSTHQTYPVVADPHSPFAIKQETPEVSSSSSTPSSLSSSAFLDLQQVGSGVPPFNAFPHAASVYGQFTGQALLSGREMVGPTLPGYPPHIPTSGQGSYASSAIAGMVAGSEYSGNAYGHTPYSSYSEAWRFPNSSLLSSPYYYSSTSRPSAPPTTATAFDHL

[9] = inhibitors of clade B AD8 Env fusion, dose response, cell-based, cherry-pick (AID 652062); format: functional;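 also: luciferase signal from cell-cell fusion driven by HIV-1 clade B AD8 Env; potency is for inhibitors of fusion seen as a drop in luminescence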
[10] = CEM21 lymphoblast cell cytotoxicity, dose response, cytotoxicity control for viral fusion inhibitor project, CellTiter-Glo luminescence, cherry-picked (AID 652042); format: functional, cell-based;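 also: potency for signal decrease meaning cytotoxicity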
[11] = target: Dual specificity tyrosine-phosphorylation-regulated kinase 1A (Rattus norvegicus, UniProt Q63470); format: biochemical, Homo sapiens
[12] = target: Cyclin-dependent kinase 5/CDK5 activator 1 (Homo sapiens, UniProt Q00535); assay: CDK5/p35 kinase inhibitors, dose response, biochemical, cherry-picked samples, set 2 (AID 504545)
Chain of Cyclin-dependent kinase 5/CDK5 activator 1 (Q00535 whole entry): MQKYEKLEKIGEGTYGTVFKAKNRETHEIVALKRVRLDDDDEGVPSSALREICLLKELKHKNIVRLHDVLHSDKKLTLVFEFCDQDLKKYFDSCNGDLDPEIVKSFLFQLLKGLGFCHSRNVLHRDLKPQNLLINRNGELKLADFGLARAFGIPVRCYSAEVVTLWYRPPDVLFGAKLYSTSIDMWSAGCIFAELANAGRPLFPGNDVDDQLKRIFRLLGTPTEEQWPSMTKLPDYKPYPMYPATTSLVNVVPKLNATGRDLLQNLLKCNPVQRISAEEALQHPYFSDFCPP
Chain of Cyclin-dependent kinase 5/CDK5 activator 1 (Q15078 whole entry, further chain): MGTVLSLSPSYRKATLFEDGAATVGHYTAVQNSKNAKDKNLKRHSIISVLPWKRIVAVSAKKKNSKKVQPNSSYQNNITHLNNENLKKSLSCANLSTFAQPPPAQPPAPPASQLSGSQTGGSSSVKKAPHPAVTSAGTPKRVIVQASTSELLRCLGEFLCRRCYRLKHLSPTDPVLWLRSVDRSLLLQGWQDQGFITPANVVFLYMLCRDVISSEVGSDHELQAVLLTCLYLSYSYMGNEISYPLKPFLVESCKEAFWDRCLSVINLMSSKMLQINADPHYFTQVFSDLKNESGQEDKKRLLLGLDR

In the case of NC(=NOC(=O)c1ccc(Cl)cc1)c1ncc([N+](=O)[O-])s1, the IC50 [1] is reported as 118 µM (inactive), the CC50 [2] is reported as > 40 µM (active) and the IC50 [3] is reported as 19.2 µM (active). The IC50 [4] was > 119 µM (inactive).
With N#Cc1c(N)n(C2OC(CO)C(O)C2O)c2ncnc(N)c12 (configuration not stated) the AC50 [5] was 822 nM (active), the AC50 [6] was 663 nM (active) and the AC50 [7] was 609 nM (active). The AC50 [8] was < 260 nM (active), the AC50 [9] was 2.86 µM (active) and the AC50 [10] was < 260 nM (active). The AC50 [11] was 120 nM (active) and the AC50 [12] was 8.58 µM (active).
